According to patent publication US10646527B2, “Method of using a Mangifera indica composition in the treatment of obesity” (Vidya Herbs, Inc., priority 2015, dated 2020):
Marks after values point to notes of the source that are not given here.

Columns and labels:
[1] = test system: high fat diet fed male Wistar rats; assay: Anti-obesity activity in high fat diet fed rats; format: in vivo, rat; conditions: Group III, Orlistat 30 mg/kg
Description: Objective: The objective was to investigate the effect of the composition against high fat diet fed rats.
Animals: male Wistar rats (160 to 200 g); no. of animals: 36; housing: 3/cage, 12 hrs light/dark cycle; temperature: 25±2° c.
Model & composition of the diet: high fat diet in rats: 25% lard, 5% soybean oil; 5% starch; 65% normal commercial available rat feed
Groups: male Wistar rats were divided into six groups with six animals in each group.

[2] = Lipid peroxidation inhibitory assay (TBARS, egg yolk homogenate); format: biochemical; conditions: Sample Concentration: 100-500 μg/ml
Description: A modified thiobarbituric acid reactive species (TBARS) assay (Ohkowa et al., 1979) is used to measure lipid peroxidation formed using egg yolk homogenate as lipid rich media (Ruberto et al., 2000).
Take 0.5 ml of egg homogenate (10% in distilled water) and 0.1 ml of test sample in the concentration range 100-500 μg/ml in a test tube and volume made up to 1 ml by adding distilled water. Finally add 0.05 ml ferrous sulphate (0.07M) to the above mixture and incubated for 30 min to induce the lipid peroxidation. Thereafter added 1.5 ml of 20% acetic acid (pH 3.5) and 1.5 ml of (0.8% in 1.1% SDS) TBA and 0.05 ml (20%) TCA then heated in boiling water bath for 60 min. After cooling 5 ml of butanol was added to all the test tubes and centrifuged at 3000 rpm for 10 min. Measured the absorbance of the organic upper layer at 532 nm. The percentage inhibition of lipid peroxidation was calculated from the formula,
[formula] where: Ab (cont)—is the absorbance of the control Ab (test sample)—is the absorbance of the test sample/standard

[3] = Hydrogen peroxide (H2O2) scavenging activity; format: biochemical
Description: Hydrogen peroxide scavenging activity of the composition was estimated in this study where initially, composition solutions were prepared at different concentrations in distilled water and the resultant solutions were mixed in 0.6 ml of 40 mM H2O2 solution prepared in phosphate buffer (0.1 M pH 7.4) and incubated for 10 min. The absorbance was measured at 230 nm against a blank solution containing H2O2. Similar procedure was repeated for the composition, mangiferin, and quercetin. The amount of hydrogen peroxide radical inhibited was calculated using the following equation. The result is expressed as % H2O2 radical scavenging activity.
[formula] [formula] where: Abs control—Absorbance of H2O2 radical Abs sample—Absorbance of sample extract/standard (the composition, mangiferin and quercetin) Result: […]

| Compound | Atherogenic Index [1] | BAT (brown adipose tissue) [1] | Difference in body weight gain [1] | Epididymal fat pad Left [1] | Epididymal fat pad Right [1] | Liver organ weight [1] | Lipid peroxidation % inhibition [2] [%] | % H2O2 radical scavenging activity ([3]; 10 μg/ml) [%] | % H2O2 radical scavenging activity ([3]; 20 μg/ml) [%] | % H2O2 radical scavenging activity ([3]; 30 μg/ml) [%] | % H2O2 radical scavenging activity ([3]; 40 μg/ml) [%] |
| --- | --- | --- | --- | --- | --- | --- | --- | --- | --- | --- | --- |
| CCCCCCCCCCC[C@@H](C[C@@H]1OC(=O)[C@H]1CCCCCC)OC(=O)[C@H](CC(C)C)NC=O [Orlistat] | 1.39 ± 0.15^***b | 0.28 ± 0.01^nsb | 79.82 ± 2.58 ^b | 0.52 ± 0.03^nsb | 0.55 ± 0.02^nsb | 2.8 ± 0.08***^b | – | – | – | – | – |
| O=c1c(O)c(-c2ccc(O)c(O)c2)oc2cc(O)cc(O)c12 [Quercetin(Standard), Quercetin] | – | – | – | – | – | – | 53.44 | 5.6 | 14.55 | 18.86 | 33.96 |
